Data published in PubChem BioAssay (NCI).
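How tested: cells in 96-well plates exposed to compound for 48 hours at five concentrations. GI50 = concentration required for 50% inhibition of growth. TGI is the concentration that stops growth completely.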

Assays:
Experiment in all cases: NCI anticancer screen, dose series, 48 h
NCI-H23 lung = tested on: NCI-H23 lung
BT-549 breast = tested on: BT-549 breast
SR leukemia = tested on: SR leukemia
SK-MEL-2 melanoma = tested on: SK-MEL-2 melanoma
A498 renal = tested on: A498 renal
SK-OV-3 ovarian = tested on: SK-OV-3 ovarian
NCI-H226 lung = tested on: NCI-H226 lung
UO-31 renal = tested on: UO-31 renal
RPMI-8226 leukemia = tested on: RPMI-8226 leukemia
MDA-MB-231 breast = tested on: MDA-MB-231 breast

Row | SMILES | TGI (NCI-H23 lung) | TGI (BT-549 breast) | TGI (SR leukemia) | TGI (SK-MEL-2 melanoma) | TGI (A498 renal) | TGI (SK-OV-3 ovarian) | TGI (NCI-H226 lung) | TGI (UO-31 renal) | TGI (RPMI-8226 leukemia) | TGI (MDA-MB-231 breast) | GI50 (NCI-H23 lung) | GI50 (BT-549 breast) | GI50 (SR leukemia) | GI50 (SK-MEL-2 melanoma) | GI50 (A498 renal) | GI50 (SK-OV-3 ovarian) | GI50 (NCI-H226 lung) | GI50 (UO-31 renal) | GI50 (RPMI-8226 leukemia) | GI50 (MDA-MB-231 breast)
1 | CC1NCCC(CC(=O)O)C1CC(=O)O (stereo not given) | > 100 µM | > 100 µM | > 100 µM | > 100 µM | > 100 µM | > 100 µM | > 100 µM | > 100 µM | > 100 µM | > 100 µM | – | – | – | – | – | – | – | – | – | –
2 | OCC1OC(N2CCN(C3OC(CO)C(O)C(O)C3O)CC2)C(O)C(O)C1O (stereo not given) | > 100 µM | > 100 µM | > 100 µM | > 100 µM | > 100 µM | > 100 µM | > 100 µM | > 100 µM | > 100 µM | > 100 µM | – | – | – | – | – | – | – | – | – | –
3 | CC(=O)Nc1ccc2c(c1)[nH]c(=O)c1cc(NC(C)=O)ccc12 | > 100 µM | > 100 µM | 53.4 µM | > 100 µM | > 100 µM | > 100 µM | > 100 µM | > 100 µM | > 100 µM | > 100 µM | > 100000 nM | > 100 µM | 15500 nM | > 100 µM | > 100000 nM | > 100 µM | > 100 µM | > 100000 nM | > 100000 nM | 90.2 µM
4 | CCN1C(=O)N(CC)C2C1NN=c1s/c(=C\c3ccc(Br)cc3)c(=O)n12 (stereo not given) | > 100 µM | 16.4 µM | > 100 µM | > 100 µM | > 100 µM | > 100 µM | > 100 µM | > 100 µM | – | > 76.6 µM | 422 nM | 0.196 µM | 40 nM | 4.91 µM | 83.3 nM | 1.84 µM | – | 1510 nM | 269 nM | 0.306 µM
5 | Nc1cc2c3ccccc3ccc2c2ccccc12 | > 100 µM | > 100 µM | > 100 µM | > 100 µM | > 100 µM | > 100 µM | > 100 µM | > 100 µM | > 100 µM | > 100 µM | > 100000 nM | > 77.1 µM | > 100000 nM | > 100 µM | > 100000 nM | > 100 µM | > 61.4 µM | > 100000 nM | > 45900 nM | 7.36 µM
6 | O=C(Nc1ccc(-c2cn3ccccc3n2)cc1)c1cc(Br)ccc1O | > 100 µM | > 100 µM | > 100 µM | > 100 µM | > 100 µM | > 100 µM | > 100 µM | – | > 100 µM | > 100 µM | – | – | – | – | – | – | – | – | – | –
7 | Cn1cc(-c2nc(-c3c[nH]c4ccccc34)cs2)c2cccnc21 | > 100 µM | 17.8 µM | > 79.4 µM | 51.8 µM | 6.1 µM | > 82.4 µM | > 100 µM | > 100 µM | 32.3 µM | > 100 µM | 1040 nM | 0.325 µM | 167 nM | 0.353 µM | 315 nM | 0.523 µM | 0.578 µM | 649 nM | 541 nM | 1.29 µM
8 | O=C1NC(=O)/C(=C/c2ccc3nccc(-c4ccncc4)c3c2)S1 | > 6 µM | 1.39 µM | 4.88 µM | 2.25 µM | 0.208 µM | 0.918 µM | 2.76 µM | 1.05 µM | 6.75 µM | 3.92 µM | 633 nM | 0.212 µM | 547 nM | 0.438 µM | 33.5 nM | 0.201 µM | 0.239 µM | 140 nM | 1190 nM | 0.387 µM
9 | O=C(COc1ccc(Cl)cc1Cl)NNc1ccc([N+](=O)[O-])cc1 | > 100 µM | 52 µM | > 100 µM | 39.7 µM | 53.8 µM | 55 µM | > 100 µM | > 100 µM | > 100 µM | > 100 µM | 41500 nM | 24 µM | 49900 nM | 22 µM | 21600 nM | 24 µM | 28.9 µM | > 100000 nM | > 100000 nM | 30.8 µM
10 | CN1CCN(CCCn2c3c(sc4ncccc43)c(=O)n3nnc(-c4ccccc4)c23)CC1 | 4.38 µM | 30.6 µM | 0.603 µM | 39 µM | 21.3 µM | 33.3 µM | 31.9 µM | 2.42 µM | 5.3 µM | 3.04 µM | 1970 nM | 14.7 µM | 241 nM | 21.6 µM | 6700 nM | 18.4 µM | 15.1 µM | 802 nM | 2080 nM | 1.59 µM
11 | O=C(Nc1cccc(Cl)c1)Nc1cc(C(F)(F)F)ccc1Cl | 6.59 µM | 10.1 µM | 38 µM | 5.4 µM | 6.36 µM | 16.5 µM | 10.5 µM | – | 7.13 µM | 4.23 µM | 2440 nM | 2.81 µM | 3780 nM | 2.24 µM | 2160 nM | 3.54 µM | 3.25 µM | – | 2330 nM | 1.97 µM
12 | Cc1cccc(Nc2ncc(-c3ccccc3)o2)c1 | > 25 µM | > 25 µM | > 25 µM | > 25 µM | > 25 µM | > 25 µM | > 25 µM | > 25 µM | > 25 µM | > 25 µM | > 25000 nM | > 25 µM | > 25000 nM | > 25 µM | > 25000 nM | > 25 µM | > 25 µM | > 25000 nM | > 25000 nM | > 18.8 µM
13 | c1ccc2c(c1)CCCc1nnc3nc4ccccc4n3c1-2 | > 100 µM | > 100 µM | 25.7 µM | > 100 µM | > 100 µM | > 100 µM | > 100 µM | 30.5 µM | 29.1 µM | > 100 µM | 7310 nM | 11.5 µM | 3160 nM | 28.3 µM | 16600 nM | 7.78 µM | 6.39 µM | 3080 nM | 2960 nM | 4.98 µM
14 | COc1cc(-c2cc(-c3ccc(Nc4nc(Nc5ccc(Cl)cc5)nc(Nc5ccc(Cl)cc5)n4)cc3)no2)cc(OC)c1OC | > 100 µM | > 100 µM | 21.6 µM | > 100 µM | > 100 µM | > 100 µM | > 100 µM | > 100 µM | > 100 µM | > 100 µM | 18000 nM | 13.9 µM | 1920 nM | 5.04 µM | 2710 nM | > 100 µM | 27 µM | 6000 nM | 1750 nM | 5.15 µM
